From patent US8445509B2, “Fused heterocyclic derivatives and use thereof” (Takeda Pharmaceutical Company Limited, priority 2008, dated 2013)

Columns and labels:
[1] = tested on: Human gastric cancer cell line MKN-45; assay: Human gastric cancer cell line MKN-45 growth inhibitory test; assay type: cell-based; details: MKN-45, 72 h, culture for 3 days; for inhibition at 1 µM: 1 μM test substance, read-out: inhibitory rate (%) at 1 μM; for IC50: read-out: IC50 value
Method in brief: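 MKN-45 cells plated at 3000/well in RPMI1640 with 0.3% FBS, then exposed to test substance for 3 days at 37 °C. Viability read by CCK-8 absorbance at 450 nm; IC50 from variable-slope sigmoidal fit, with DMSO as 100% growth and 10 µM reference c-Met inhibitor as 0% growth.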

[2] = target: T1, VEGFR2 intracellular domain protein (Homo sapiens, UniProt P35968); assay: Vascular endothelial growth factor receptor 2 (VEGFR2) kinase inhibitory activity (AlphaScreen); assay type: biochemical
T1 construct: made in house; host or cells: SF-21 insect cells, recombinant baculovirus BAC-VEGFR2
Experimental: Human vascular endothelial growth factor receptor 2 (hereinafter to be referred to as VEGFR2) gene was cloned by PCR using cDNA Libraries Human Placenta (Clontech) as a template. […] The primer base sequence is shown below.
SF-21 cells were sown at 1×10^6 cells/mL to Sf-900II SFM medium (1 L, Invitrogen) containing 10% fetal bovine serum (trace), 50 mg/L Gentamicin (Invitrogen) and 0.1% Pluronic F-68 (Invitrogen), and shaking culture was performed using a 2 L volume Erlenmeyer flask at 27° C., 100 rpm. After culturing for 24 hrs, recombinant baculovirus BAC-VEGFR2 (13.4 mL) was added to the mixture, and the mixture was further cultured for 3 days. The culture medium was centrifuged at 2,000 rpm for 5 min to give virus-infected cells. The infected cells were washed with a phosphate buffered saline (Invitrogen), centrifuged under the same conditions, and the cells were preserved at −80° C. The cryopreserved cells were thawed in ice, suspended in buffer A (50 mM Tris buffer (30 mL, pH 7.4) containing 20% glycerol, 0.15 M NaCl) supplemented with Complete Protease Inhibitor (Boehringer), and ruptured 3 times with a Polytron homogenizer (Kinematica) at 20,000 rpm for 30 sec. The ruptured medium was clarified by centrifugation at 40,000 rpm for 30 min and filtered with a 0.45 μm filter. The filtrate was passed through a column packed with Anti-FLAG M2 Affinity Gel (4 mL, Sigma) at a flow rate of about 0.5 mL/min. The column was washed with buffer A, and eluted with buffer A containing 100 μg/mL of FLAG peptide. The eluate was concentrated with Vivaspin 20 (Vivascience) having a molecular weight cut off of 30K. The buffer of this concentrate was exchanged using NAP™ 25 column (Amersham Bioscience) equilibrated with buffer A. The fractions containing intracellular domain protein of VEGFR2 were collected, glycerol was added to the final concentration of 50% and cryopreserved at −80° C.
(§1) A test compound dissolved in dimethyl sulfoxide (DMSO) was diluted with a buffer (50 mM Tris-HCl (pH 7.5), 5 mM MgCl2, 5 mM MnCl2, 2 mM dithiothreitol, 0.01% Tween-20). To this compound solution (5 μL) was added a buffer (10 μL) containing 50 ng/mL of VEGFR2 intracellular domain protein and 250 ng/mL of biotin labeled polypeptide biotinyl-poly-Glu:Tyr (4:1) (CIS bio International). […] The reaction solution was allowed to stand at 25° C. for 16 hrs, and the wells were counted using a plate reader (Fusion™ (PerkinElmer)). The kinase inhibitory rate (%) of the test compound was calculated by the following formula: Inhibitory rate (%)=(1−(count of test compound−blank)÷(control−blank))×100
(§2) The count of the solution reacted without addition of the compound was used as a “control”, and the count of the solution without the compound and ATP was used as a “blank”.

[3] = tested on: Human blood cell cancer cell line MV-4-11; assay: Human blood cell cancer cell line MV-4-11 growth inhibitory test; assay type: cell-based; details: MV4-11, 72 h, culture for 3 days; for inhibition at 1 µM: 1 μM test substance, read-out: inhibitory rate (%) at 1 μM
[4] = target: T2, c-Met intracellular domain protein (Homo sapiens, UniProt P08581); assay: Hepatocyte growth factor receptor (c-Met) kinase inhibitory activity (AlphaScreen); assay type: biochemical; details: for inhibition at 1 µM: 1 μM test compound, read-out: inhibitory rate (%) at 1 μM
T2 construct: 2.5 ng/ml of c-Met intracellular domain protein (Millipore); purchased Millipore
Experimental: as §1, with “containing 2.5 ng/ml” for “containing 50 ng/mL”, “of c-Met” for “of VEGFR2”, “protein (Millipore)” for “protein”
as §2

T2 sequence (P08581 956-1390 limits assumed): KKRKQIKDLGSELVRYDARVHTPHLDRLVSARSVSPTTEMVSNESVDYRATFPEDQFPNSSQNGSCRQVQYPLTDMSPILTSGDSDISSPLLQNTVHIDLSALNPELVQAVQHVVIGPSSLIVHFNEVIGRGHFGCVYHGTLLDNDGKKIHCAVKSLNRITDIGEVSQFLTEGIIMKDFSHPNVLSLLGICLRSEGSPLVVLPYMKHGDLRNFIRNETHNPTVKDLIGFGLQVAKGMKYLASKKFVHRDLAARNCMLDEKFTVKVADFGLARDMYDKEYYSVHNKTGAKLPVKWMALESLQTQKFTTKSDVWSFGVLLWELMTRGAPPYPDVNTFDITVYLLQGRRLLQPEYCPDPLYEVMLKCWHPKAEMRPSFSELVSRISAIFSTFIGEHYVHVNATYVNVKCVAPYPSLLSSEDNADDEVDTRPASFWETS
T1 sequence (P35968 786-1356 limits assumed): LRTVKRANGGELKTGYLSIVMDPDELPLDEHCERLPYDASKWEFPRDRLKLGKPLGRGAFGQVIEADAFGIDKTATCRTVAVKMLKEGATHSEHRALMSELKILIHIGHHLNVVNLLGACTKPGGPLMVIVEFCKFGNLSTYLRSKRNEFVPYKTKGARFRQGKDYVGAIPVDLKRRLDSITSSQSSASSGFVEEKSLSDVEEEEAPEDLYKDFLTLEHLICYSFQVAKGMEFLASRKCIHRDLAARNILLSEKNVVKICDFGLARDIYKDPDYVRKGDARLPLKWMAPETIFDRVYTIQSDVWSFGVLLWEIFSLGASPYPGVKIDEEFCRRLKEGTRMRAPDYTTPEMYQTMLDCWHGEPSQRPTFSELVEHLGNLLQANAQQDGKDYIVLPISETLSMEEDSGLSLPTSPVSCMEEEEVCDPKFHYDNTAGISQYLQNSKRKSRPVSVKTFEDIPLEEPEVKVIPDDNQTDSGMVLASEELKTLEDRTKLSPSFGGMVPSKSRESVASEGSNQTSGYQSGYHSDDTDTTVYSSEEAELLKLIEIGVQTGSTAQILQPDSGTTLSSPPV

| Compound | inhibition at 1 µM [1] | IC50 [1] | IC50 [2] | inhibition at 1 µM [3] | IC50 [3] | IC50 [4] | inhibition at 1 µM [4] |
| --- | --- | --- | --- | --- | --- | --- | --- |
| Cc1ccc(C(=O)Nc2ccc(Oc3ccc4nc(NC(=O)C5CC5)cn4c3)c(F)c2)c(=O)n1-c1ccc(F)cc1.Cl [Example 32, N-[4-({2-[(cyclopropylcarbonyl)amino]imidazo[1,2-a]pyridin-6-yl}oxy)-3-fluorophenyl]-1-(4-fluorophenyl)-6-methyl-2-oxo-1,2-dihydropyridine-3-carboxamide hydrochloride] | ≥ 80% | ≤ 1000 nM | ≤ 1000 nM | ≥ 90% | ≤ 1000 nM | ≤ 1000 nM | ≥ 80% |
| O=C(Nc1cn2cc(Oc3ccc(NC(=O)C4(C(=O)Nc5ccc(F)cc5)CC4)cc3F)ccc2n1)C1CC1 [Example 11, N-[4-({2-[(cyclopropylcarbonyl)amino]imidazo[1,2-a]pyridin-6-yl}oxy)-3-fluorophenyl]-N′-(4-fluorophenyl)cyclopropane-1,1-dicarboxamide] | ≥ 80% | ≤ 1000 nM | ≤ 1000 nM | ≥ 90% | ≤ 1000 nM | ≤ 1000 nM | ≥ 80% |
| Cc1cc(C(=O)Nc2ccc(Oc3ccc4nc(NC(=O)C5CC5)cn4c3)c(F)c2)c(=O)n(-c2ccc(F)cc2)c1C [Example 70, N-[4-({2-[(cyclopropylcarbonyl)amino]imidazo[1,2-a]pyridin-6-yl}oxy)-3-fluorophenyl]-1-(4-fluorophenyl)-5,6-dimethyl-2-oxo-1,2-dihydropyridine-3-carboxamide] | ≥ 80% | ≤ 1000 nM | ≤ 1000 nM | ≥ 90% | ≤ 1000 nM | ≤ 1000 nM | ≥ 80% |
| Cc1c(C(=O)Nc2ccc(Oc3ccc4nc(NC(=O)C5CC5)cn4c3)c(F)c2)c(=O)n(-c2ccccc2)n1C [Example 46, N-[4-({2-[(cyclopropylcarbonyl)amino]imidazo[1,2-a]pyridin-6-yl}oxy)-3-fluorophenyl]-1,5-dimethyl-3-oxo-2-phenyl-2,3-dihydro-1H-pyrazole-4-carboxamide] | ≥ 80% | ≤ 1000 nM | ≤ 1000 nM | ≥ 90% | ≤ 1000 nM | ≤ 1000 nM | ≥ 80% |
| CC1=C(c2ccc(F)cc2)C(=O)N(C(=O)Nc2ccc(Oc3ccc4nc(NC(=O)C5CC5)cn4c3)c(F)c2)CC1 [Example 81, N-[4-({2-[(cyclopropylcarbonyl)amino]imidazo[1,2-a]pyridin-6-yl}oxy)-3-fluorophenyl]-5-(4-fluorophenyl)-4-methyl-6-oxo-3,6-dihydropyridine-1(2H)-carboxamide] | ≥ 80% | ≤ 1000 nM | ≤ 1000 nM | ≥ 90% | ≤ 1000 nM | ≤ 1000 nM | ≥ 80% |
| Cc1cc(C)n(-c2ccc(F)cc2)c(=O)c1C(=O)Nc1ccc(Oc2ccc3nc(NC(=O)C4CC4)cn3c2)c(F)c1 [Example 82, N-[4-({2-[(cyclopropylcarbonyl)amino]imidazo[1,2-a]pyridin-6-yl}oxy)-3-fluorophenyl]-1-(4-fluorophenyl)-4,6-dimethyl-2-oxo-1,2-dihydropyridine-3-carboxamide] | ≥ 80% | ≤ 1000 nM | ≤ 1000 nM | ≥ 90% | ≤ 1000 nM | ≤ 1000 nM | ≥ 80% |
| Cc1ccc(C(=O)Nc2ccc(Oc3ccc4nc(NC(=O)C5CC5)cn4c3)c(F)c2)[n+]([O-])c1-c1ccc(F)cc1 [Example 29, N-[4-({2-[(cyclopropylcarbonyl)amino]imidazo[1,2-a]pyridin-6-yl}oxy)-3-fluorophenyl]-6-(4-fluorophenyl)-5-methylpyridine-2-carboxamide 1-oxide] | ≥ 80% | ≤ 1000 nM | ≤ 1000 nM | ≥ 90% | ≤ 1000 nM | ≤ 1000 nM | ≥ 80% |
| O=C(Nc1nc2ccc(Oc3ccc(NC(=O)C4(C(=O)Nc5ccccc5)CC4)cc3F)cc2s1)C1CC1 [Example 18, N-[4-({2-[(cyclopropylcarbonyl)amino]-1,3-benzothiazol-6-yl}oxy)-3-fluorophenyl]-N′-phenylcyclopropane-1,1-dicarboxamide] | ≥ 80% | ≤ 1000 nM | ≤ 1000 nM | ≥ 90% | ≤ 1000 nM | ≤ 1000 nM | ≥ 80% |
| Cc1ccc(C(=O)Nc2ccc(Oc3ccc4nc(NC(=O)C5CC5)cn4c3)c(Cl)c2)c(=O)n1-c1ccc(F)cc1 [Example 57, N-[3-chloro-4-({2-[(cyclopropylcarbonyl)amino]imidazo[1,2-a]pyridin-6-yl}oxy)phenyl]-1-(4-fluorophenyl)-6-methyl-2-oxo-1,2-dihydropyridine-3-carboxamide] | ≥ 80% | ≤ 1000 nM | ≤ 1000 nM | ≥ 90% | ≤ 1000 nM | ≤ 1000 nM | ≥ 80% |
| Cc1ccc(C(=O)Nc2ccc(Oc3ccc4nc(NC(=O)C5CC5)cn4c3)cc2)c(=O)n1-c1ccc(F)cc1 [Example 28, N-[4-({2-[(cyclopropylcarbonyl)amino]imidazo[1,2-a]pyridin-6-yl}oxy)phenyl]-1-(4-fluorophenyl)-6-methyl-2-oxo-1,2-dihydropyridine-3-carboxamide] | ≥ 80% | ≤ 1000 nM | ≤ 1000 nM | ≥ 90% | ≤ 1000 nM | ≤ 1000 nM | ≥ 80% |
| O=C(Nc1cn2cc(Oc3ccc(NC(=O)C4(C(=O)Nc5ccccc5)CC4)cc3F)ccc2n1)C1CC1 [Example 14, N-[4-({2-[(cyclopropylcarbonyl)amino]imidazo[1,2-a]pyridin-6-yl}oxy)-3-fluorophenyl]-N′-phenylcyclopropane-1,1-dicarboxamide] | ≥ 80% | ≤ 1000 nM | ≤ 1000 nM | ≥ 90% | ≤ 1000 nM | ≤ 1000 nM | ≥ 80% |
| Cc1ccc(C(=O)Nc2ccc(Oc3ccc4nc(NC(=O)C5CC5)cn4c3)c(F)c2)c(=O)n1-c1ccc(F)c(F)c1 [Example 45, N-[4-({2-[(cyclopropylcarbonyl)amino]imidazo[1,2-a]pyridin-6-yl}oxy)-3-fluorophenyl]-1-(3,4-difluorophenyl)-6-methyl-2-oxo-1,2-dihydropyridine-3-carboxamide] | ≥ 80% | ≤ 1000 nM | ≤ 1000 nM | ≥ 90% | ≤ 1000 nM | ≤ 1000 nM | ≥ 80% |
